Structures can show the parent of a compound that is named as a salt. ± gives the uncertainty stated by the source.
Legend:
[1] = system: KeratinoSens (HaCaT ARE-luciferase) cells; experiment: AC50 of Nrf2/ARE luciferase induction; higher = less potent; conditions: exposure time: 24 h
[2] = system: KeratinoSens (HaCaT ARE-luciferase) cells; experiment: cytotoxicity AC50 (CellTiter-Fluor viability); higher = less cytotoxic; conditions: exposure time: 24 h
THP-1 [3] = experiment: efficacy of IL-8 induction relative to DMSO (% activity); higher = stronger induction; conditions: exposure time: 18 h
[4] = system: lysine peptide Ac-RFAAKAA-COOH; experiment: efficacy of lysine peptide change (negative = depletion) (% activity); higher = less depletion; conditions: incubation time: 24 h
[5] = system: cysteine peptide Ac-RFAACAA-COOH; experiment: efficacy of cysteine peptide change (negative = depletion) (% activity); higher = less depletion; conditions: incubation time: 24 h
[6] = system: KeratinoSens (HaCaT ARE-luciferase) cells; experiment: efficacy of ARE luciferase induction relative to DMSO (% activity over DMSO); higher = stronger induction; conditions: exposure time: 24 h
[7] = system: cysteine peptide Ac-RFAACAA-COOH; experiment: AC50 of cysteine peptide concentration-response (direction given by sign of efficacy); higher = less potent; conditions: incubation time: 24 h
THP-1 [8] = experiment: AC50 of IL-8 secretion induction; higher = less potent; conditions: exposure time: 18 h

| Compound | AC50 of Nrf2/ARE luciferase induction [1] [µM] | cytotoxicity AC50 [2] [µM] | efficacy of IL-8 induction (THP-1 [3]) | efficacy of lysine peptide change [4] | efficacy of cysteine peptide change [5] | efficacy of ARE luciferase induction [6] | AC50 [7] [µM] | AC50 of IL-8 secretion induction (THP-1 [8]) [µM] |
| --- | --- | --- | --- | --- | --- | --- | --- | --- |
| N#C/C=C/C#N [Fumaronitrile] | 32.9 | 23.1 ± 6.4 | 8.38 ± 7.6 | -12.4 ± 34 | -104 ± 7.3 | 193 ± 39 | 3.3 ± 0.42 |  |
| O=[N+]([O-])c1cc(N(CCO)CCO)ccc1NCCO [HC Blue 2] |  |  | 38.4 ± 82 | 0 | -49.3 ± 1.9 | 0 | 18.7 ± 3.4 | 66.8 |
| CC(O)C#CC(C)O (centres undefined) [Hex-3-yne-2,5-diol] |  | 32.9 ± 2.2 | 62.2 ± 17 | -5.13 ± 15 | -101 ± 4.2 | -35.2 ± 7.1 | 4.16 ± 0.53 | 41.4 |
| c1ccc2c(c1)OCC(C1=NCCN1)O2 (centres undefined) [Idazoxan] | 12.6 | 22.4 | 12.4 ± 3.5 | -1.64 ± 20 | -124 ± 14 | 39.9 ± 3.1 | 27.3 ± 3.8 |  |
| CN(C)c1ccc(C(=C2C=CC(=[N+](C)C)C=C2)c2ccccc2)cc1 [Malachite green oxalate*] |  | 8.91 | 47.7 ± 7.8 | 36.4 ± 15 | -94.9 ± 1.7 | -37.3 ± 7.1 | 4.18 ± 2 | 15.3 |
| [CH3][Hg][Cl] [Methyl mercuric (II) chloride] | 3.98 | 6.57 ± 0.44 | 73.6 ± 0.91 | 0 | -97.5 ± 1.4 | 188 ± 110 | 46.5 ± 3.1 |  |
| CCCCNC(=S)NCCCC [N,N'-Dibutylthiourea] |  | 62 ± 25 | 90.2 ± 38 | 85.4 ± 13 | -32.7 ± 21 | 41.8 ± 35 |  | 89.1 |
| S=C(NC1CCCCC1)NC1CCCCC1 [N,N'-Dicyclohexylthiourea] |  | 53.1 ± 25 | 84.8 ± 36 | -53.1 ± 24 | 5.83 ± 10 | 82 ± 95 |  | 85.9 |
| c1ccc(Nc2ccc(Nc3ccccc3)cc2)cc1 [N,N'-Diphenyl-p-phenylenediamine] | 22.5 | 55.2 ± 14 | 9.77 ± 9.9 | -22.2 ± 3.3 | -119 ± 12 | 54.7 ± 14 | 23 ± 18 |  |
| c1ccc2sc(SNC3CCCCC3)nc2c1 [N-Cyclohexyl-2-benzothiazolesulfenamide] |  |  | 101 ± 42 | 24.6 ± 4.2 | -89.9 ± 7 | 135 ± 140 | 11.1 ± 3.1 | 85.9 |
| COP(=O)(OC)OC(Br)C(Cl)(Cl)Br (centres undefined) [Naled] | 31.8 | 46.5 ± 3.1 | 8.61 ± 7.6 | -3.08 ± 5.3 | -89.9 ± 2.4 | 307 ± 93 | 0.93 ± 0.12 |  |
| N=C(N)NN=C(/C=C/c1ccc([N+](=O)[O-])o1)/C=C/c1ccc([N+](=O)[O-])o1 [Nitrovin] |  | 6.97 ± 1.7 | 63.3 ± 30 | -31.7 ± 10 | -105 ± 8.6 | 46.8 ± 140 | 5.39 ± 1.6 | 11.6 |
| CCCOc1ccc2[nH]c(NC(=O)OC)nc2c1 [Oxibendazole] |  | 2.73 ± 0.38 | 36.3 ± 9.3 | 50.4 ± 6.8 | 0 | 30.2 ± 9.6 |  | 27.7 |
| C=CC(=O)OCC(COC(=O)C=C)(COC(=O)C=C)COC(=O)C=C [Pentaerythritol tetraacrylate] | 15.8 | 25.3 ± 4.1 | 23.5 ± 10 | -27.5 ± 6 | -102 ± 14 | 118 ± 5.8 | 3.11 ± 0.76 |  |
| O=C(/C=C/C=C/c1ccc2c(c1)OCO2)N1CCCCC1 [Piperine] | 29.1 | 44 ± 11 | 13.7 ± 14 | 1.32 ± 18 | -72.8 ± 22 | 76 ± 12 | 80.8 ± 18 |  |
| O=C1OC(CCN2CCCCC2)OC1(c1ccccc1)c1ccccc1 (centres undefined) [Pipoxolan hydrochloride] | 20.7 | 33.5 ± 2.7 | 0 | -49.6 ± 25 | -104 ± 2.6 | 107 ± 83 | 4.43 ± 1.9 |  |
| COc1cccc2c1C(=O)c1c(O)c3c(c(O)c1C2=O)C[C@@](O)(C(=O)CO)C[C@@H]3O[C@H]1C[C@H](N)[C@H](O[C@@H]2CCCCO2)[C@H](C)O1 [Pirarubicin*] | 20.5 | 17.9 ± 6.5 | 21.1 ± 6.6 | -33.9 ± 4.4 | -101 ± 3.8 | 638 ± 360 | 3.01 ± 1.5 |  |
| CCCSS/C(CCO)=C(/C)N(C=O)Cc1cnc(C)nc1N [Prosultiamine] | 15.8 | 26.1 ± 1.8 | 30.5 ± 12 | 154 ± 29 | -112 ± 9.3 | 433 ± 21 | 1.59 ± 0.18 |  |
| CC(C)OC(=S)S [Proxan-sodium] |  | 37.3 ± 6.7 | 59.9 ± 7.8 | 10.8 ± 20 | -94.2 ± 20 | 59.5 ± 100 | 73.6 ± 37 | 35.9 |
| O=C(N/N=C/c1ccccc1O)c1ccncc1 [Salinazid] |  | 4.76 ± 1.3 | 45.6 ± 14 | 16.7 ± 23 | -3.5 ± 6.1 | -34.3 ± 30 |  | 20 |
| CC(C)CP(=S)(S)CC(C)C [Sodium bis(2-methylpropyl)phosphinodithioate] |  | 21.1 ± 9.9 | 82.4 ± 10 | 108 ± 18 | -92.6 ± 1.4 | 168 ± 27 | 76.5 ± 25 | 38.4 |
| O=C(Nc1ncc([N+](=O)[O-])s1)c1cccs1 [Tenonitrozole] | 8.8 | 12.7 ± 2 | 6.75 ± 5.9 | 33.7 ± 8.7 | -93.3 ± 27 | 27.5 ± 48 | 96.8 ± 13 |  |
| O=c1[nH]sc2cc(Cl)ccc12 [Ticlatone] |  | 13.2 ± 2.4 | 92.2 ± 7.7 | -0.22 ± 12 | -90.5 ± 5.6 | 55.4 ± 80 | 0.65 ± 0.18 | 21.6 |
| Cc1ccc(O)c2ncccc12 [Tiliquinol] |  | 2.47 ± 0.62 | 117 ± 19 | -8.95 ± 16 | -11.2 ± 4.1 | -35.2 ± 3.8 |  | 4.38 |
| [Cl][Bi]([Cl])([c]1ccccc1)([c]1ccccc1)[c]1ccccc1 [Triphenylbismuthine dichloride] | 14.2 | 28.2 | 92.2 ± 110 | 23.5 ± 22 | -96.9 ± 5.6 | 95.5 ± 39 | 0.85 ± 0.38 |  |
| Cc1cc(C2(c3cc(C)c(O)cc3C)OS(=O)(=O)c3ccccc32)c(C)cc1O [p-Xylenol blue] |  | 28.6 ± 6 | 45.6 ± 8.1 | 121 ± 16 | -13.7 ± 2.3 | 0 |  | 52.2 |
